Data published in the NIST ThermoML archive (doi:10.1021/je100148h).
Values joined by “and” are separate entries in the source; they are usually repeats but may differ in a detail not shown here. Identical values can stand only once.

Details: Burnett expansion method

[Ar] [argon]
Gas
Details	mass density
318.75 K, 217.45 kPa	3.2819 kg/m3 and 3.2809 kg/m3
318.75 K, 299.59 kPa	4.5227 kg/m3 and 4.5217 kg/m3
318.75 K, 412.69 kPa	6.2318 kg/m3 and 6.2327 kg/m3
318.75 K, 568.39 kPa	8.5885 kg/m3 and 8.5891 kg/m3
318.75 K, 782.65 kPa	11.8364 kg/m3 and 11.8363 kg/m3
318.75 K, 1077.3 kPa	16.3128 kg/m3 and 16.3112 kg/m3
318.75 K, 2800.7 kPa	42.6996 kg/m3 and 42.685 kg/m3
318.75 K, 3845.5 kPa	58.8449 kg/m3 and 58.8199 kg/m3
318.75 K, 5275.1 kPa	81.0918 kg/m3 and 81.0507 kg/m3
318.75 K, 7231.5 kPa	111.747 kg/m3 and 111.681 kg/m3
318.76 K, 157.82 kPa	2.3805 kg/m3 and 2.3815 kg/m3
318.76 K, 1482.3 kPa	22.4815 kg/m3 and 22.4774 kg/m3
318.76 K, 2038.2 kPa	30.9829 kg/m3 and 30.9748 kg/m3

O=C=O [carbon dioxide]
343.13 K, Fluid (supercritical or subcritical phases)
Details	mass density
214.49 kPa	3.3311 kg/m3 and 3.3345 kg/m3
295.01 kPa	4.5929 kg/m3 and 4.5951 kg/m3
405.34 kPa	6.3329 kg/m3 and 6.3325 kg/m3
556.21 kPa	8.7319 kg/m3 and 8.7265 kg/m3
761.77 kPa	12.0399 kg/m3 and 12.0258 kg/m3
1040.8 kPa	16.6004 kg/m3 and 16.5719 kg/m3
1417 kPa	22.8886 kg/m3 and 22.8367 kg/m3
1919.8 kPa	31.5581 kg/m3 and 31.4693 kg/m3
2584.2 kPa	43.5107 kg/m3 and 43.3646 kg/m3
3447.3 kPa	59.9881 kg/m3 and 59.7539 kg/m3
4543 kPa	82.704 kg/m3 and 82.3364 kg/m3
5888.2 kPa	114.017 kg/m3 and 113.448 kg/m3
7469.2 kPa	157.178 kg/m3 and 156.31 kg/m3
